According to PMC9545474, “Anticancer Water‐Soluble Organoruthenium Complexes: Synthesis and Preclinical Evaluation” (Chembiochem, 2022):

Columns and labels:
[1] = test system: A2780 cells; test: ROS detection, DCFH2-DA assay by flow cytometry; format: cell-based, human; settings: A2780, five hours, IC50 concentrations
Procedure: To confirm the hypothesis of induction of oxidative stress by complexes 6 and 8, based on the potential mechanism of action observed for complex 3, the intracellular production of ROS in A2780 cells exposed to the complexes was investigated using the fluorescent DCFH2‐DA assay with the analysis performed by flow cytometry.
ROS detection: Flow cytometry analysis of total induction of ROS in A2780 cells caused by exposure to complexes 6 and 8 was carried out using DCFH2‐DA assay. Briefly, 1.0×10^6 cells per well were seeded in a 6‐well plate and incubated for 24 at 37 °C and a 5 % CO2 humidified atmosphere. After removal of the media, cells were washed with PBS and loaded with DCFH2‐DA dye (20 μM, in basal RPMI). […] Cells were washed with PBS and harvested with trypsin. Cells were analysed in a BD Accuri C6 Plus System Flow Cytometer using Ex/Em: 490/525 nm for the oxidative stress detection. Data was analysed using the BD Accuri C6 Plus software.

[2] = test system: A2780 cells; test: FITC annexin-V / PI apoptosis assay by flow cytometry; format: cell-based, human; settings: A2780, 24 h, complexes 2×IC50, doxorubicin 0.5 µM
Excerpt: Annexin V‐FITC and propidium iodide (PI) have been used to distinguish between viable cells (Q1‐LL), early apoptotic cells (Q1‐LR), late apoptotic cells (Q1‐UR), and necrotic cells (Q1‐UL). […] Both complexes 6 and 8 induce apoptosis of A2780 cells and treatment with the complexes results in 99.6 % and 95.4 % of the cells in late apoptosis, respectively.
Figure 9 Flow cytometry analysis of A2780 cells exposed to complexes 6 or 8 at twice the IC50 concentration compared to a negative control. FITC reads annexin fluorescence and PE reads propidium iodide. Abbreviations: Q1‐UL=non‐viable cells; Q1‐UR=late‐stage apoptotic cells; Q1‐LR=early‐stage apoptotic cells and Q1‐LL=healthy cells.
FITC annexin‐V apoptosis assay: Flow cytometry analysis of apoptotic populations was carried out using the FITC Annexin V Apoptosis Detection Kit with PI (BioLegend®) according to manufacturer's instructions. Briefly, A2780 cells were seeded in 6‐well plates at a concentration of 1.0×10^6 cells per well and the plates were incubated for 24 h at 37 °C and a 5 % CO2 humidified atmosphere. […] Cells were then harvested using trypsin (without EDTA) and stained with PI/Annexin V‐FITC. After staining in the dark for 15 min at room temperature, cell pellets were analysed in a BD Accuri C6 Plus System flow cytometer and data was analysed using the BD Accuri C6 Plus software. These experiments were carried out in duplicate of triplicates in independent experiments; although only selected dot plots are shown, full numerical data and statistical analysis can be found in the Supporting Information.

[3] = mice
Procedure: (§1) Compounds: All compounds were provided in powdered form and stored in the −20 °C freezer. They were formulated just before use. […] The drugs were then administered within 10 minutes of initial dilution.
(§2) Animals: Female Balb/c immunodeficient nude mice aged 6–12 weeks were used (Envigo, Blackthorn, UK). Mice were kept in cages housed in isolation cabinets in an air‐conditioned room with regular alternating cycles of light and darkness. They received Teklad 2018 diet (Envigo, Blackthorn, UK) and water ad libitum. All animal procedures were carried out under a project licence issued by the UK Home Office and UK National Cancer Research Institute Guidelines for the Welfare of Animals were followed throughout.
(1 picture or pasted object on this page, not shown here)

[4] = test system: A2780cisR subcutaneous tumour xenograft; test: Efficacy in A2780cisR (A2780/cis) subcutaneous tumour xenograft model; format: in vivo, Female Balb/c immunodeficient nude mice; settings: 6 at 50 mg/kg, 8 at 15 mg/kg, i.p.; for Median time to RTV2 / Maximum % weight loss / Growth delay: A2780/cis xenograft, days 0–4; for Maximum % weight loss: day in brackets; for Growth delay: versus untreated
Procedure: as §1, §2
(§3) S.c. xenograft tumours: A2780/WT and A2780/cis tumours were excised from a donor animal, placed in sterile physiological saline containing antibiotics and cut into small fragments of approximately 5 mm^3. Under brief general inhalation anaesthesia, fragments were implanted in the flank of each mouse using a trocar. Once the tumours could accurately be measured by callipers, the mice were allocated into groups (control or treated) by restricted randomisation to keep group mean tumour size variation to a minimum, with 3 animals set up per group.
(§4) Evaluation of efficacy in s.c. xenograft models: The compounds were prepared fresh on the days of treatment as described above and administered i. p. to mice on days 0–4 in a volume of 0.1 mL per 10 g of body weight. […] The negative control group was untreated.
(§5) The effects of therapy were assessed by frequent monitoring growth of the tumours and body weight. Two‐dimensional calliper measurements of the tumours were taken, and volumes calculated using the formula (a^2×b)/2, where a is the smaller and b the larger diameter of the tumour. Tumour volume was then normalised to the respective volume on day 0, and semi‐log plots of relative tumour volume (RTV) versus time were made. Mann‐Whitney U tests were performed to determine the statistical significance of any differences in growth rate (based on tumour volume doubling time, RTV2) between control and treated groups.

[5] = test system: A2780 subcutaneous tumour xenograft; test: Efficacy in A2780 subcutaneous tumour xenograft model; format: in vivo, Female Balb/c immunodeficient nude mice; settings: 6 at 50 mg/kg, 8 at 15 mg/kg, i.p.; for Maximum % weight loss / Median time to RTV2: days 0–4; for Growth delay: days 0–4, versus untreated
Procedure: as §1, §2, §3, §4, §5

[6] = Reactivity with NAC by NMR; format: physicochemical; settings: NMR studies over 24 hours
[7] = Combined results, Average of two experiments

With `Cc1ccc(C(C)C)cc1.N#CC1=C(C#N)[S][Ru-]([P+](c2ccccc2)(c2ccccc2)c2ccccc2)[S]1` [Complex 8, (η^6‐p‐cymene)(PPh3)Ru(Mnt)] the “ROS levels in treated cells compared to untreated cells” value [1] was “significant increase of ROS levels”, the “Early apoptosis (Q1-LR)” value [2, 7] was 2.5% and the “Late apoptosis (Q1-UR)” value [2, 7] was 94.4%. For the same compound, the “Necrosis (Q1-UL)” value [2, 7] was 0.5%, the “Viable cells (Q1-LL)” value [2, 7] was 2.6% and the “Early apoptosis (Q1-LR)” value ([2]; Experiment 1, Average) was 2.6%. For the same compound, the “Late apoptosis (Q1-UR)” value ([2]; Experiment 1, Average) was 94.3%, the “Necrosis (Q1-UL)” value ([2]; Experiment 1, Average) was 0.4% and the “Viable cells (Q1-LL)” value ([2]; Experiment 1, Average) was 2.7%. For the same compound, the “Early apoptosis (Q1-LR)” value ([2]; Experiment 1, Rep 1) was 2.6%, the “Late apoptosis (Q1-UR)” value ([2]; Experiment 1, Rep 1) was 95.4% and the “Necrosis (Q1-UL)” value ([2]; Experiment 1, Rep 1) was 0.3%. The “Viable cells (Q1-LL)” value ([2]; Experiment 1, Rep 1) was 1.7%, the “Early apoptosis (Q1-LR)” value ([2]; Experiment 1, Rep 2) was 2.2% and the “Late apoptosis (Q1-UR)” value ([2]; Experiment 1, Rep 2) was 94.5%. The “Necrosis (Q1-UL)” value ([2]; Experiment 1, Rep 2) was 0.4%, the “Viable cells (Q1-LL)” value ([2]; Experiment 1, Rep 2) was 2.8% and the “Early apoptosis (Q1-LR)” value ([2]; Experiment 1, Rep 3) was 3.0%. The “Late apoptosis (Q1-UR)” value ([2]; Experiment 1, Rep 3) was 93.0%, the “Necrosis (Q1-UL)” value ([2]; Experiment 1, Rep 3) was 0.6% and the “Viable cells (Q1-LL)” value ([2]; Experiment 1, Rep 3) was 3.5%. The “Early apoptosis (Q1-LR)” value ([2]; Experiment 2, Average) was 2.4%, the “Late apoptosis (Q1-UR)” value ([2]; Experiment 2, Average) was 94.5% and the “Necrosis (Q1-UL)” value ([2]; Experiment 2, Average) was 0.6%. For the same compound, the “Viable cells (Q1-LL)” value ([2]; Experiment 2, Average) was 2.5%, the “Early apoptosis (Q1-LR)” value ([2]; Experiment 2, Rep 1) was 2.0% and the “Late apoptosis (Q1-UR)” value ([2]; Experiment 2, Rep 1) was 95.1%. The “Necrosis (Q1-UL)” value ([2]; Experiment 2, Rep 1) was 0.6%, the “Viable cells (Q1-LL)” value ([2]; Experiment 2, Rep 1) was 2.3% and the “Early apoptosis (Q1-LR)” value ([2]; Experiment 2, Rep 2) was 2.3%. The “Late apoptosis (Q1-UR)” value ([2]; Experiment 2, Rep 2) was 94.2%, the “Necrosis (Q1-UL)” value ([2]; Experiment 2, Rep 2) was 0.8% and the “Viable cells (Q1-LL)” value ([2]; Experiment 2, Rep 2) was 2.7%. The “Early apoptosis (Q1-LR)” value ([2]; Experiment 2, Rep 3) was 2.9%, the “Late apoptosis (Q1-UR)” value ([2]; Experiment 2, Rep 3) was 94.1% and the “Necrosis (Q1-UL)” value ([2]; Experiment 2, Rep 3) was 0.5%. The “Viable cells (Q1-LL)” value ([2]; Experiment 2, Rep 3) was 2.5%, the “maximum tolerated dose (MTD)” value ([3]; i.p. daily, monitored for a further two weeks) was 15 mg/kg and the “Toxicity in MTD run” value ([3]; i.p., 15mg/kg in 20 % DMSO/arachis oil, full run) was “no evidence of toxicity was seen”. For the same compound, the “Median time to RTV2” value [4] was 10.0 days, the “Maximum % weight loss” value [4] was 2% and the Growth delay [4] was 7.2 days. For the same compound, the “Toxicity in xenograft study” value ([4]; A2780cisR xenograft) was “No toxicity was observed”, the “Toxicity in xenograft study” value [5] was “No toxicity was observed” and the “Maximum % weight loss” value [5] was 0%. The “Median time to RTV2” value [5] was 1.5 days and the Growth delay [5] was 0.1 days.

For “(η^6‐p‐cymene)(TPPTS)Ru(Mnt) [Complex 6]”, the “ROS levels in treated cells compared to untreated cells” value [1] was “significant increase of ROS levels”, the “Early apoptosis (Q1-LR)” value [2, 7] was 0.1% and the “Late apoptosis (Q1-UR)” value [2, 7] was 99.8%. For the same compound, the “Necrosis (Q1-UL)” value [2, 7] was 0.0%, the “Viable cells (Q1-LL)” value [2, 7] was 0.2% and the “Early apoptosis (Q1-LR)” value ([2]; Experiment 1, Average) was 0.1%. For the same compound, the “Late apoptosis (Q1-UR)” value ([2]; Experiment 1, Average) was 99.6%, the “Necrosis (Q1-UL)” value ([2]; Experiment 1, Average) was 0.0% and the “Viable cells (Q1-LL)” value ([2]; Experiment 1, Average) was 0.2%. The “Early apoptosis (Q1-LR)” value ([2]; Experiment 1, Rep 1) was 0.1%, the “Late apoptosis (Q1-UR)” value ([2]; Experiment 1, Rep 1) was 99.6% and the “Necrosis (Q1-UL)” value ([2]; Experiment 1, Rep 1) was 0.0%. The “Viable cells (Q1-LL)” value ([2]; Experiment 1, Rep 1) was 0.2%, the “Early apoptosis (Q1-LR)” value ([2]; Experiment 1, Rep 2) was 0.1% and the “Late apoptosis (Q1-UR)” value ([2]; Experiment 1, Rep 2) was 99.6%. The “Necrosis (Q1-UL)” value ([2]; Experiment 1, Rep 2) was 0.0%, the “Viable cells (Q1-LL)” value ([2]; Experiment 1, Rep 2) was 0.2% and the “Early apoptosis (Q1-LR)” value ([2]; Experiment 1, Rep 3) was 0.2%. The “Late apoptosis (Q1-UR)” value ([2]; Experiment 1, Rep 3) was 99.5%, the “Necrosis (Q1-UL)” value ([2]; Experiment 1, Rep 3) was 0.0% and the “Viable cells (Q1-LL)” value ([2]; Experiment 1, Rep 3) was 0.3%. The “Early apoptosis (Q1-LR)” value ([2]; Experiment 2, Average) was 0.0%, the “Late apoptosis (Q1-UR)” value ([2]; Experiment 2, Average) was 99.9% and the “Necrosis (Q1-UL)” value ([2]; Experiment 2, Average) was 0.0%. The “Viable cells (Q1-LL)” value ([2]; Experiment 2, Average) was 0.1%, the “Early apoptosis (Q1-LR)” value ([2]; Experiment 2, Rep 1) was 0.0% and the “Late apoptosis (Q1-UR)” value ([2]; Experiment 2, Rep 1) was 99.9%. The “Necrosis (Q1-UL)” value ([2]; Experiment 2, Rep 1) was 0.0%, the “Viable cells (Q1-LL)” value ([2]; Experiment 2, Rep 1) was 0.1% and the “Early apoptosis (Q1-LR)” value ([2]; Experiment 2, Rep 2) was 0.0%. The “Late apoptosis (Q1-UR)” value ([2]; Experiment 2, Rep 2) was 99.9%, the “Necrosis (Q1-UL)” value ([2]; Experiment 2, Rep 2) was 0.0% and the “Viable cells (Q1-LL)” value ([2]; Experiment 2, Rep 2) was 0.0%. For the same compound, the “Early apoptosis (Q1-LR)” value ([2]; Experiment 2, Rep 3) was 0.0%, the “Late apoptosis (Q1-UR)” value ([2]; Experiment 2, Rep 3) was 99.9% and the “Necrosis (Q1-UL)” value ([2]; Experiment 2, Rep 3) was 0.0%. The “Viable cells (Q1-LL)” value ([2]; Experiment 2, Rep 3) was 0.1%, the “Reaction with NAC” value [6] was “do not react together” and the “Median time to RTV2” value [4] was 3.0 days. The “Maximum % weight loss” value [4] was 2%, the Growth delay [4] was 0.2 days and the “Maximum % weight loss” value [5] was 0%. The “Median time to RTV2” value [5] was 2.0 days and the Growth delay [5] was 0.6 days.
